Experimental data as given in PubChem BioAssay (NCI).
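Protocol summary: plate cells (96-well), add compound at 5 concentrations, incubate 48 h, interpolate endpoints linearly. Definition used: TGI = concentration required for complete inhibition of growth.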

How the values were obtained:
Assay in all cases: NCI-60 cell line screen, 48 h
[1] = tested on: HOP-62 NSCLC
[2] = tested on: MOLT-4 leukemia
[3] = tested on: BT-549 breast
[4] = tested on: MDA-N
[5] = tested on: OVCAR-4 ovarian
[6] = tested on: EKVX NSCLC
[7] = tested on: SN12C renal
[8] = tested on: KM12 colon
[9] = tested on: M14 melanoma
[10] = tested on: TK-10 renal
[11] = tested on: HCT-116 colon
[12] = tested on: OVCAR-8 ovarian

| SMILES | TGI [1] | TGI [2] | TGI [3] | TGI [4] | TGI [5] | TGI [6] | TGI [7] | TGI [8] | TGI [9] | TGI [10] | TGI [11] | TGI [12] |
| --- | --- | --- | --- | --- | --- | --- | --- | --- | --- | --- | --- | --- |
| CC(C)Oc1c(-c2ccc(F)cc2)c(O)c2c3c1oc(=O)n3C=CC2C (stereo not drawn) | 28.6 µM | 39.2 µM | 28 µM | 27.1 µM | 23.3 µM | 30.6 µM | 23.8 µM | 34.3 µM | 28.5 µM | 30.7 µM | 25.5 µM | 30.6 µM |
| C=C1C[C@H](O)[C@H](Br)C(C)(C)C12CCC(C)(Cl)C(Br)C2 (stereo partly drawn) | 12.2 µM | 75 µM | 18.5 µM | 10.8 µM | 7.95 µM | 1.61 µM | 14.8 µM | 9.88 µM | 13.3 µM | 13.1 µM | 16.1 µM | 15.1 µM |
| OC1CSc2nc3ccccc3n2C1 (stereo not drawn) |  | > 100 µM | > 100 µM | > 100 µM |  | > 100 µM | > 100 µM | > 100 µM | > 100 µM | > 100 µM | > 100 µM | > 100 µM |
| CCOC1CC(C)N(C(=O)c2ccccc2)O1 (stereo not drawn) | > 100 µM | > 100 µM | > 100 µM | > 100 µM |  | > 100 µM | > 100 µM | > 100 µM | > 100 µM | > 100 µM | > 100 µM | > 100 µM |
| COc1ccc(-c2oc3c(OC)c(OC)cc(O)c3c(=O)c2OC)cc1 | > 100 µM | > 100 µM | > 100 µM | > 100 µM | > 100 µM | > 100 µM | > 100 µM | > 100 µM | > 100 µM | > 100 µM | > 100 µM | > 100 µM |
| CC(=O)N(C(C)=O)c1cc2c3c(c1)CCCN3CCC2 | > 10 µM | > 10 µM | > 10 µM | > 10 µM | > 10 µM | > 10 µM | > 10 µM | > 10 µM | > 10 µM | > 10 µM | > 10 µM | > 10 µM |
| Cc1ccc(N(C)S(=O)(=O)c2ccccc2[N+](=O)[O-])cc1 | > 100 µM |  | 61.7 µM | > 100 µM | > 100 µM | > 100 µM | > 100 µM | > 100 µM | 44.5 µM | > 100 µM | > 100 µM | > 100 µM |
| CCOC(=O)c1c(NC(=S)Nc2ccccc2)sc2c1CCOC2 | > 100 µM | > 100 µM | 58 µM | > 100 µM | > 100 µM | > 100 µM | > 100 µM | > 100 µM | > 100 µM | > 100 µM | > 100 µM | > 100 µM |
| O=c1oc2c(Cl)cc(Cl)cc2cc1C1=CSC2=NCCN12 | > 100 µM | > 100 µM | 74.4 µM | > 100 µM | > 100 µM | > 100 µM | > 100 µM | > 100 µM | > 100 µM | > 100 µM | > 100 µM | > 100 µM |
| Cc1nc2sccn2c1/C=C1/C(=O)Nc2cccc(Cl)c21 | > 100 µM | > 100 µM | > 100 µM | 38.1 µM |  | > 100 µM | > 100 µM | > 100 µM | > 100 µM | > 100 µM | > 100 µM | > 100 µM |
| CC(=O)OC(C)(C)CCC(=O)[C@](C)(O)[C@H]1[C@H](O)C[C@@]2(C)[C@@H]3CCc4c(cc(OC5OC(CO)C(O)C(O)C5O)c(O)c4C)C3(C)C(=O)C[C@]12C (stereo partly drawn) | > 100 µM | > 100 µM | > 100 µM | > 100 µM | > 100 µM | > 100 µM | > 100 µM | > 100 µM | > 100 µM | > 100 µM | > 100 µM | > 100 µM |
| O=C1CC(=O)NC(=NNS(=O)(=O)c2ccc(Cl)cc2)N1 | > 100 µM | > 100 µM | > 100 µM | > 100 µM | > 100 µM |  | > 100 µM | > 100 µM | > 100 µM | > 100 µM | > 100 µM | > 100 µM |
| CCO/C=N/C1=C(C#N)SC2=N/C(=C\c3ccccc3)C(=O)N21 | > 100 µM | > 100 µM | > 100 µM | > 100 µM | > 100 µM | > 100 µM | > 100 µM | > 100 µM | > 100 µM | > 100 µM | > 100 µM | > 100 µM |
| O=C(c1cc2c(c3ccccc13)NC1(CCCCC1)N=C2C(F)(F)F)C(F)(F)F | > 100 µM | 14.5 µM | 15.8 µM | 14.2 µM | 14.9 µM | 15.7 µM | 13.2 µM | 14.2 µM | 18.1 µM | 14 µM | 12.6 µM | 15.8 µM |
| Cn1cc(-c2csc(-c3cn(C)c4ccccc34)n2)c2ccccc21 | 45.7 µM | 42 µM | > 100 µM | > 100 µM | > 100 µM |  | > 100 µM | > 100 µM | > 100 µM | > 100 µM | > 100 µM | > 100 µM |
| CCOC(=O)/C=C(/C)Nc1nc2c(c(C(=O)OC)c1C#N)CCCC2 | > 100 µM | > 100 µM | > 100 µM | > 100 µM | > 100 µM | > 100 µM | > 100 µM | > 100 µM | > 100 µM | > 100 µM | > 100 µM | > 100 µM |
| CC[C@@]1(O)C(=O)OCc2c1cc1n(c2=O)Cc2c-1nc1ccccc1c2/C=N/NC(=O)c1ccc(N)cc1 | 1.61 µM | 0.287 µM | > 100 µM | > 37.6 µM | > 100 µM | > 100 µM | 16.2 µM | > 75.9 µM | 1.23 µM | > 100 µM | 12 µM | > 100 µM |
| COc1cccc(/C=C2\S/C(=N/Nc3nc(-c4ccc([N+](=O)[O-])cc4)cs3)NC2=O)c1O | 34.1 µM | > 100 µM | 20 µM | 57.5 µM |  | 43 µM | 50.5 µM | 26.9 µM | 33.2 µM | 67.6 µM | 27.8 µM | 48.3 µM |
